In patent US20250009742A1 (priority 2021, published 2025):

Experiments:
[1] = Cell viability assay (EZ-Cytox), cytotoxicity; assay type: cell-based; conditions: human, HepAD38 cells; for viability at 65 h, 100 µM: read-out: Cytotoxicity % Livability (@100 μM)
Method: HepAD38 cells were cultured for 2 days in Dulbecco's Modified Eagle's medium (Welgene, LM001-05) supplemented with 10% FBS without tetracycline. […] After 65 hours of treatment, viability was measured using EZ-Cytox cell viability assay kit (Daeil Lab Service) according to the manufacturer's instructions. The absorbance was measured at 450 nm using a spectrophotometer (Spark, Tecan).

[2] = tested on: intracellular HBV DNA; test: Real-time PCR for intracellular HBV DNA in HepAD38 cells; assay type: cell-based; conditions: Hepatitis B virus, HePAD38, 65 h, 65 hours treatment

Structure (SMILES)	CC50 at 65 h [1] [µM]	viability at 65 h, 100 µM [1] [%]	IC50 [2] [µM]
COc1ncc(N(Cc2cc(C(F)(F)F)[nH]n2)C(=O)Nc2ccc(F)c(C(F)F)n2)cn1 [Example 202, 3-(6-(difluoromethyl)-5-fluoropyridin-2-yl)-1-(2-methoxypyrimidin-5-yl)-1-((5-(trifluoromethyl)-1H-pyrazol-3-yl)methyl)urea]	> 100	82.3	0.046
COc1ccc(N(Cc2nn(CCO)c3c2CCC3)C(=O)Nc2ccc(F)c(Cl)c2)cn1 [Example 67, 3-(3-chloro-4-fluorophenyl)-1-((1-(2-hydroxyethyl)-1,4,5,6-tetrahydrocyclopenta[c]pyrazol-3-yl)methyl)-1-(6-methoxypyridin-3-yl)urea]	> 100	–	> 0.3
C=C(C)c1c(CN(C(=O)Nc2ccc(F)c(Cl)c2)c2cnc(OC)nc2)n[nH]c1C(F)F [Example 93, 3-(3-chloro-4-fluorophenyl)-1-((5-(difluoromethyl)-4-(prop-1-en-2-yl)-1H-pyrazol-3-yl)methyl)-1-(2-methoxypyrimidin-5-yl)urea]	> 100	–	0.32
COc1ccc(N(Cc2cc(C(F)(F)F)[nH]n2)C(=O)Nc2ccc(F)c(Cl)c2)nn1 [Example 96, 3-(3-chloro-4-fluorophenyl)-1-(6-methoxypyridazin-3-yl)-1-((5-(trifluoromethyl)-1H-pyrazol-3-yl)methyl)urea]	> 100	93.4	> 1.1
COc1ncc(N(Cc2n[nH]c(C(F)(F)F)c2CC(C)O)C(=O)Nc2ccc(F)c(C(F)F)c2)cn1 (centres unmarked) [Example 199, 3-(3-(difluoromethyl)-4-fluorophenyl)-1-((4-(2-hydroxypropyl)-5-(trifluoromethyl)-1H-pyrazol-3-yl)methyl)-1-(2-methoxypyrimidin-5-yl)urea]	> 100	95.7	0.75
COc1ncc(N(Cc2cc(C(F)(F)F)[nH]n2)C(=O)Nc2cc(N(C)C)c(F)c(Cl)n2)cn1 [Example 138, 3-(6-chloro-4-(dimethylamino)-5-fluoropyridin-2-yl)-1-(2-methoxypyrimidin-5-yl)-1-((5-(trifluoromethyl)-1H-pyrazol-3-yl)methyl)urea]	> 100	71.9	> 1.1
COc1ccc(N(Cc2cc(C(F)(F)F)[nH]n2)C(=O)Nc2ccc(F)c(C(F)F)c2)cn1 [Example 188, 3-(3-(difluoromethyl)-4-fluorophenyl)-1-(6-methoxypyridin-3-yl)-1-((5-(trifluoromethyl)-1H-pyrazol-3-yl)methyl)urea]	> 100	97.9	0.016
CC(C)(O)c1ccc(N(Cc2n[nH]c3c2CCOC3)C(=O)Nc2ccc(F)c(Cl)c2)cn1 [Example 111, 3-(3-chloro-4-fluorophenyl)-1-(6-(2-hydroxypropan-2-yl)pyridin-3-yl)-1-((1,4,5,7-tetrahydropyrano[3,4-c]pyrazol-3-yl)methyl)urea]	> 100	–	> 1.1
COc1ncc(N(Cc2cc(C(F)F)[nH]n2)C(=O)Nc2cccc(C(F)F)c2)cn1 [Example 178, 1-((5-(difluoromethyl)-1H-pyrazol-3-yl)methyl)-3-(3-(difluoromethyl)phenyl)-1-(2-methoxypyrimidin-5-yl)urea]	> 100	68.5	0.022
CS(=O)(=O)Nc1ccc(N(Cc2n[nH]c3c2CCCO3)C(=O)Nc2ccc(F)c(Cl)c2)cc1 [Example 19, N-(4-(3-(3-chloro-4-fluorophenyl)-1-((1,4,5,6-tetrahydropyrano[2,3-c]pyrazol-3-yl)methyl)ureido)phenyl)methanesulfonamide]	> 100	–	> 1.1
COc1ncc(N(Cc2cc(C(F)(F)F)[nH]n2)C(=O)Nc2cc(F)c(F)c(F)c2)cn1 [Example 219, 1-(2-methoxypyrimidin-5-yl)-1-((5-(trifluoromethyl)-1H-pyrazol-3-yl)methyl)-3-(3,4,5-trifluorophenyl)urea]	> 100	53.7	0.012
